Experimental data taken from patent US7053107B2, “Indazole compounds and pharmaceutical compositions for inhibiting protein kinases, and methods for their use” (Agouron Pharmaceuticals, Inc., priority 2002, dated 2006).

Key:
[1] = target: T1, unphosphorylated VEGF-R2Δ50 (Homo sapiens, UniProt P35968, DEL940-989/E990V); assay: VEGF-R2 coupled spectrophotometric assay, unphosphorylated construct (FLVK); format: biochemical; conditions: % inhibition at 50 nM compound; read-out: FLVK Ki % inh @ 50 nM
T1 construct: VEGF-R2Δ50 contains residues 806–939 and 990–1171; made in house; host or cells: baculovirus/insect cell system
Outline: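 Human VEGF-R2Δ50 kinase (residues 806–939/990–1171, baculovirus-expressed; autophosphorylated form pre-treated with 3 mM ATP, 4° C, 2 h), 5–40 nM, with poly(E4Y1) in 200 mM HEPES pH 7.5; ADP coupled via PK/LDH to NADH oxidation at 340 nm. Phosphorylated: 1 mM ATP, 5.1 mM poly(E4Y1), 25 mM MgCl2; unphosphorylated: 3 mM ATP, 20 mM poly(E4Y1), 60 mM MgCl2, 2 mM MnCl2. Ki from activity at varying compound levels.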

HUVEC = assay: bFGF Huvec; format: cell-based; conditions: Homo sapiens
[2] = system: human umbilical vein endothelial cells (HUVEC); assay: HUVEC Proliferation Assay (VEGF-stimulated); format: cell-based
Outline: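 Serum-starved HUVEC (passage 3–4, F12K + 1% FBS, 24 h) pretreated 1 h with compound (final DMSO 0.1%), then stimulated with 6 ng/mL VEGF for 72 h. Proliferation read by 4 h MTT reduction, absorbance 595. IC50 from seven-point 0.5-log curves in triplicate; screening % inhibition normalised to VEGF-only and starvation controls.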

[3] = target: T2, phosphorylated VEGF-R2Δ50 (Homo sapiens, UniProt P35968, DEL940-989/E990V); assay: VEGF-R2 coupled spectrophotometric (FLVK-P) assay, phosphorylated construct; format: biochemical; conditions: Ki (nM)
T2 construct: VEGF-R2Δ50 contains residues 806–939 and 990–1171; made in house; host or cells: baculovirus/insect cell system
Description: This construct determines the ability of a test compound to inhibit tyrosine kinase activity. A construct (VEGF-R2Δ50) of the cytosolic domain of human vascular endothelial growth factor receptor 2 (VEGF-R2) lacking the 50 central residues of the 68 residues of the kinase insert domain was expressed in a baculovirus/insect cell system. Of the 1356 residues of full-length VEGF-R2, VEGF-R2Δ50 contains residues 806–939 and 990–1171, and also one point mutation (E99OV) within the kinase insert domain relative to wild-type VEGF-R2. Autophosphorylation of the purified construct was performed by incubation of the enzyme at a concentration of 4 μM in the presence of 3 mM ATP and 40 mM MgCl2 in 100 mM HEPES, pH 7.5, containing 5% glycerol and 5 mM DTT, at 4° C. for 2 h. […] See Parast et al., Biochemistry, 37,16788–16801 (1998).
The production of ADP from ATP that accompanies phosphoryl transfer was coupled to oxidation of NADH using phosphoenolpyruvate (PEP) and a system having pyruvate kinase (PK) and lactic dehydrogenase (LDH). The oxidation of NADH was monitored by following the decrease of absorbance at 340 nm (e340=6.22 cm^−1 mM^−1) using a Beckman DU 650 spectrophotometer. […] Ki values were determined by measuring enzyme activity in the presence of varying concentrations of test compounds. The data were analyzed using Enzyme Kinetic and Kaleidagraph software.

KDR = target: T3, KDR (Homo sapiens, UniProt P35968); assay: KDR (VEGFR2) Phosphorylation in PAE-KDR Cells Assay; format: cell-based; conditions: PAE cells overexpressing human KDR
T3 construct: expressed in transfected cells; host or cells: porcine aorta endothelial (PAE) cells
Description: This assay determines the ability of a test compound to inhibit the autophosphorylation of KDR in porcine aorta endothelial (PAE)-KDR cells. PAE cells that overexpress human KDR were used in this assay. The cells were cultured in Ham's F12 media supplemented with 10% fetal bovine serum (FBS) and 400 μg/mL G418. Thirty thousands cells were seeded into each well of a 96-well plate in 75 μL of growth media and allowed to attach for 6 hours at 37° C. Cells were then exposed to the starvation media (Ham's F12 media supplemented with 0.1% FBS) for 16 hours. After the starvation period was over, 10 μL of test agent in 5% DMSO in starvation media were added to the test wells and 10 μL of the vehicle (5% DMSO in starvation media) were added into the control wells. The final DMSO concentration in each well was 0.5%. Plates were incubated at […] for 1 hour and the cells were then stimulated with 500 ng/ml VEGF (commercially available from R & D System) in the presence of 2 mM Na3VO4 for 8 minutes. The cells were washed once with 1 mm Na3VO4 in HBSS and lysed by adding 50 μL per well of lysis buffer. […] Phosphorylation status was assessed by spectrophotometer reading at 450 nm. IC50 values were calculated by curve fitting using a four-parameter analysis.

FGF-R1 = target: T4, FGF-R1 (Homo sapiens, UniProt P11362, C488A/C584S/L457V); assay: Fibroblast Growth Factor (FGF-R) spectrophotometric assay; format: biochemical; conditions: 1 μM compound; read-out: FGF-P % inhibit @1 μM
T4 construct: starting from the endogenous methionine residue 456 to glutamate 766; made in house; host or cells: baculovirus vector expression system
Outline: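 Baculovirus-expressed human FGF-R1 kinase domain (Met456–Glu766; L457V/C488A/C584S), 50 nM, with 2 mM ATP and 15 mM poly(E4Y1) in HEPES pH 7.5. ADP formation coupled via PK/LDH to NADH oxidation, read as A340 decrease. Ki from activity across varying compound concentrations.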

T3 sequence (P35968 20-1356): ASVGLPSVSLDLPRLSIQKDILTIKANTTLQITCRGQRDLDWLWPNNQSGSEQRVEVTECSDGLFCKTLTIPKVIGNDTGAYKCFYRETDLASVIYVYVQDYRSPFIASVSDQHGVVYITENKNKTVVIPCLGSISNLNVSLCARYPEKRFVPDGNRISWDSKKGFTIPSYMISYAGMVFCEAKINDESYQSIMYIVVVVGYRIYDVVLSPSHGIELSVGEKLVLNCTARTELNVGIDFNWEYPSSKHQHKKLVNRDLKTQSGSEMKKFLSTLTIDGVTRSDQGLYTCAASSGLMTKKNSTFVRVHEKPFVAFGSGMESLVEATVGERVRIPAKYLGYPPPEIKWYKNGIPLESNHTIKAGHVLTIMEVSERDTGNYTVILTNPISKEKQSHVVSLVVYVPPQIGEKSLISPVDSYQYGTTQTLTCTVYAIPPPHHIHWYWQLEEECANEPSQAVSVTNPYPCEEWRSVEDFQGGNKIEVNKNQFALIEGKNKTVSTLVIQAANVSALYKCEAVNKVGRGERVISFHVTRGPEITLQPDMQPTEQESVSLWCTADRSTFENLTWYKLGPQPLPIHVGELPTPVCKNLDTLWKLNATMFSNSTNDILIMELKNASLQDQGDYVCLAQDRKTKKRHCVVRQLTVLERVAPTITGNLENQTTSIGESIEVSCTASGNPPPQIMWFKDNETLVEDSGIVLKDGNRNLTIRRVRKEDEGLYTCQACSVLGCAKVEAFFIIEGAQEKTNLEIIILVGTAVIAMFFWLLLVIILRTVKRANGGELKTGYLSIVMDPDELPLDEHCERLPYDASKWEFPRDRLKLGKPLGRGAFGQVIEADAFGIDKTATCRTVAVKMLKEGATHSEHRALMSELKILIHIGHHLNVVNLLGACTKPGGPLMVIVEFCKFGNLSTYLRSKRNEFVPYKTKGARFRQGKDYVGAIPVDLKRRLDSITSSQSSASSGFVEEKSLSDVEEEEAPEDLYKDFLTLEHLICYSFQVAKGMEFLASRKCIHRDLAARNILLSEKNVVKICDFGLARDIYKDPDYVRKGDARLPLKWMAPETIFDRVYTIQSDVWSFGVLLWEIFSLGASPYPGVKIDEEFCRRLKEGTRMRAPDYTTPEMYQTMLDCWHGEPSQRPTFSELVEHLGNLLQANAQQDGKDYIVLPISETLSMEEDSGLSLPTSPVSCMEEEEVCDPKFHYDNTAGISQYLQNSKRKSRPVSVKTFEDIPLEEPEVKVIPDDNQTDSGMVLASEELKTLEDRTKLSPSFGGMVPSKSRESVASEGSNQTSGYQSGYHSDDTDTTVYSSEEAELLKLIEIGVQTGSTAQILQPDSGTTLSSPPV
T4 sequence (P11362 456-766 L457V/C488A/C584S): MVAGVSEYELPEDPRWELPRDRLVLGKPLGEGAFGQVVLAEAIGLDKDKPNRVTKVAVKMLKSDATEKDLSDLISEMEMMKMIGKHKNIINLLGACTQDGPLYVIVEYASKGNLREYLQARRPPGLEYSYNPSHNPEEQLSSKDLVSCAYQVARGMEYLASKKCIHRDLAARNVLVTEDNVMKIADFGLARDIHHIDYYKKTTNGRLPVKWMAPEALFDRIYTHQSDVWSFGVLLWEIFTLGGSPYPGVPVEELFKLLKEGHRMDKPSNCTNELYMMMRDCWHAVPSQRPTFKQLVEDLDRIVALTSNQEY
T1 sequence (P35968 with tags, fused parts or gaps DEL940-989/E990V limits assumed): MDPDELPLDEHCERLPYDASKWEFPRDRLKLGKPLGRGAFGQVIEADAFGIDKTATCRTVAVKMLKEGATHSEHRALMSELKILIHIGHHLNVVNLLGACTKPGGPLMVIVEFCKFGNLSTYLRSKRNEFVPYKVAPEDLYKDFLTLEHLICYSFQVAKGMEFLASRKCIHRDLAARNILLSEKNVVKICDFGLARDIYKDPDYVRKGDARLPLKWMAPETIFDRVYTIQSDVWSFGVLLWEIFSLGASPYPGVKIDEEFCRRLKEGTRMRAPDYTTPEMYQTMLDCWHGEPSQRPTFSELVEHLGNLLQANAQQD
T2 sequence (P35968 with tags, fused parts or gaps DEL940-989/E990V limits assumed): as above

Row | inhibition at 0.05 µM [1] | Ki [3] | IC50 (KDR) | inhibition at 1 µM (FGF-R1) | SMILES | IC50 (HUVEC) | IC50 [2]
1 | 95% | 0.3 nM | 1.62 nM | 69% | Cc1ccnc(/C=C/c2n[nH]c3cc(Nc4ccccc4C(=O)NCC#CC4CC4)ccc23)c1 [Example 36, N-(3Cycloprop-2-ynyl)-2-{3-[(E)-2-(4-methyl-pyridin-2-yl)-vinyl]-1H-indazol-6-ylamino}-benzamide] | 935 nM | 1.67 nM
2 | 90% |  | 0.76 nM | 45% | Cc1ccnc(/C=C/c2n[nH]c3cc(Nc4ccccc4C(=O)NCc4ccccn4)ccc23)c1 [Example 37, 2-{3-[2-(4-Methyl-pyridin-2-yl)-vinyl]-1H-indazol6-ylamino}-N-pyridin-2-ylmethyl-benzamide] |  | 
